Legend:
[1] = system: MDA-MB-231 cells; assay: MTT cytotoxic assay, MDA-MB-231; format: cell-based, human
Description: (§1) Human breast cancer cell line (MDA-MB-231), cervical carcinoma cell line (HeLa), the liver cancer cell line (SMMC-7721) and normal hepatocyte cell line (QSG-7701) were maintained in Dulbecco Modified Eagle Medium (DMEM) containing 4.0 mM L-Glutamine and 4500 mg/L Glucose supplemented with 10% (v/v) foetal bovine serum (FBS) and 100 U/mL penicillin/streptomycin at 37 °C in humidified atmosphere of 5% CO2 and 95% air.
(§2) Exponentially growing MDA-MB-231, Hela and SMMC-7721 cell lines were seeded into 96-well plate for 100 μL and treated with different concentrations of the synthetic compounds for 72 h, and then 10 μL of MTT (10 mg/mL) was added and incubation for 3 ∼ 4 h at 37 °C. The generated purple formazan crystals from viable can be dissolved by adding 100 μL DMSO. The plates were swirled gently for 5 min and quantified by measuring the OD of the plates at the wavelength of 540 nm. Each concentration was repeated in three wells and the same experimental condition was provided for all compounds. The results were expressed as IC50 values with standard deviations, which was defined as the concentration at which 50% survival of cells was discerned. Etoposide was co-assayed as positive control.
(§3) The in vitro cytotoxic activity of derivatives 3a–d, 4a–h, 5a–h, and 6a–h were evaluated by MTT assay against human breast cancer cell line (MDA-MB-231), cervical carcinoma cell line (HeLa), hepatocarcinoma cell line (SMMC-7721) and human normal hepatocyte cell line (QSG-7701). The anticancer drug etoposide was co-assayed as the positive control. All tested compounds were dissolved in DMSO and the stock solutions were diluted by DMEM medium before treatment of the cultured cells.

[2] = system: HeLa cells; assay: MTT cytotoxic assay, HeLa; format: cell-based; settings: Homo sapiens, 72 h
Description: as §1, §2, §3

[3] = system: SMMC-7721 cells; assay: MTT cytotoxic assay, SMMC-7721; format: cell-based; settings: Homo sapiens, 72 h
Description: as §1, §2, §3

[4] = system: QSG-7701 cells; assay: MTT cytotoxic assay, normal hepatocyte QSG-7701; format: cell-based, human; settings: for IC50: Homo sapiens, QSG7701, MTT, normal hepatocyte cell line; for Selectivity: IC50 (QSG-7701)/IC50 (HeLa)
Description: as §1, §2, §3

[5] = target: T1, MEK1 (Homo sapiens, UniProt Q02750); assay: In vitro MEK1 kinase assay (ADP-Glo); format: biochemical; settings: recombinant GST-MEK1, GST-ERK2 (inactive) substrate, 10 μM ATP
T1 construct: purchased Carna Biosciences, Kobe, Japan
Description: An in vitro kinase assay of MEK1 was performed using ADP-Glo kinase assay (Promega, Madison, WI, USA) according to the manufacturer’s protocol. […] Reactions were stopped by adding 5 μL of ADP-Glo reagent to each well. After incubating at 22 °C for 40 min, 10 μL of the kinase detection reagent was added and the plates were incubated for another 30 min at 22 °C in the dark. The reaction mixture was analysed by EnSpire (PerkinElmer, Waltham, MA, USA).
The Raf/MEK/ERK pathway is the downstream of Ras activation, and the abnormal expression or phosphorylation of the associated proteins is essential for cancer cell proliferation. In this pathway, MEK kinase is an important anticancer target because of its key roles in regulating the cancer cell apoptosis and oncogenic transformation[51]^,[52]. Among MEK proteins, MEK1 and MEK2 are known as substrate-specific kinases which phosphorylate their downstream kinase ERK1/2.

T1 sequence (Q02750 whole entry): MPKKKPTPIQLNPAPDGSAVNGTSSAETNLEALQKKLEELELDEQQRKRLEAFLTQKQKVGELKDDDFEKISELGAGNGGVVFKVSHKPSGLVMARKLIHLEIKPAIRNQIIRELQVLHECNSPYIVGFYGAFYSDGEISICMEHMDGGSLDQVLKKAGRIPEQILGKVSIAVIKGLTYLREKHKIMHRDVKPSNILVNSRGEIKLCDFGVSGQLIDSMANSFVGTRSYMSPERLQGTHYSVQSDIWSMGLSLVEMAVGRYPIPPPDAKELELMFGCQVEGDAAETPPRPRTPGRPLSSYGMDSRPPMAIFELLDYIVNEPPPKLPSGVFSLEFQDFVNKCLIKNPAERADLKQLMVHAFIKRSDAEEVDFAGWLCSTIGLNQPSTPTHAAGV

## C[C@@H]1CC[C@]2(C(=O)O)CC[C@]3(C)C(=CCC4[C@@]5(C)Cc6cc7cc(Cl)ccc7nc6C(C)(C)C5CC[C@]43C)C2[C@H]1C (some centres unmarked) [Compound 3d]
[1]; Homo sapiens, MDA-MB-231, 72 h
  IC50: 1.36 ± 0.03 µM
[2]
  IC50: 1.22 ± 0.08 µM
[3]
  IC50: 14.62 ± 0.05 µM
[4]
  IC50: > 50 µM
  Selectivity: 59.5
[5]
  IC50: 0.82 µM

## CC(=O)NNC(=O)[C@]12CC[C@@H](C)[C@H](C)C1C1=CCC3[C@@]4(C)Cc5cc6ccccc6nc5C(C)(C)C4CC[C@@]3(C)[C@]1(C)CC2 (some centres unmarked) [Compound 4a, N-[ursa-12-en-(2,3)-quinoline-28-oyl]-acetohydrazide]
[1]; Homo sapiens, MDA-MB-231, 72 h
  IC50: 1.84 ± 0.13 µM
[2]
  IC50: 1.18 ± 0.03 µM
[3]
  IC50: 17.48 ± 0.1 µM
[4]
  IC50: 40.6 ± 2.89 µM
  Selectivity: 34.4
[5]
  IC50: 37.3 µM

## Cc1nnc([C@]23CC[C@@H](C)[C@H](C)C2C2=CCC4[C@@]5(C)Cc6cc7cc(Cl)ccc7nc6C(C)(C)C5CC[C@@]4(C)[C@]2(C)CC3)s1 (some centres unmarked) [Compound 6d]
[1]; Homo sapiens, MDA-MB-231, 72 h
  IC50: 15.8 ± 1.32 µM
[2]
  IC50: 10.9 ± 1.07 µM
[3]
  IC50: > 50 µM
[4]
  IC50: > 50 µM
  Selectivity: 5.7
[5]
  IC50: > 50 µM

## Cc1nnc([C@]23CC[C@@H](C)[C@H](C)C2C2=CCC4[C@@]5(C)Cc6cc7cc(Cl)ccc7nc6C(C)(C)C5CC[C@@]4(C)[C@]2(C)CC3)o1 (some centres unmarked) [Compound 5d, N-[5′-chloro-ursa-12-en-(2,3)-quinoline-28-oyl]-5-methyl-1,3,4-oxadiazole]
[1]; Homo sapiens, MDA-MB-231, 72 h
  IC50: 11 ± 0.98 µM
[3]
  IC50: > 50 µM
[4]
  IC50: > 50 µM
  Selectivity: 20.1
[5]
  IC50: > 50 µM

## COc1ccc2nc3c(cc2c1)CC1(C)C(CCC2(C)C1CC=C1C4C(C)C(C)CCC4(C(=O)NNC(C)=O)CCC12C)C3(C)C (centres unmarked) [Compound 4b, N-[5′-methoxy-ursa-12-en-(2,3)-quinoline-28-oyl]-acetohydrazide]
[1]; Homo sapiens, MDA-MB-231, 72 h
  IC50: 1.42 ± 0.14 µM
[2]
  IC50: 0.83 ± 0.09 µM
[3]
  IC50: 17.65 ± 0.11 µM
[4]
  IC50: 45.2 ± 2.82 µM
  Selectivity: 54.5
[5]
  IC50: 10.9 µM

## C[C@@H]1CC[C@]2(C(=O)O)CC[C@]3(C)C(=CCC4[C@@]5(C)Cc6cc7ccccc7nc6C(C)(C)C5CC[C@]43C)C2[C@H]1C (some centres unmarked) [Compound 3a]
[1]; Homo sapiens, MDA-MB-231, 72 h
  IC50: 0.75 ± 0.05 µM
[2]
  IC50: 0.37 ± 0.04 µM
[3]
  IC50: 13.4 ± 0.08 µM
[4]
  IC50: > 50 µM
[5]
  IC50: 18.6 µM

## COc1ccc2nc3c(cc2c1)CC1(C)C(CCC2(C)C1CC=C1C4C(C)C(C)CCC4(C(=O)O)CCC12C)C3(C)C (centres unmarked) [Compound 3b]
[1]; Homo sapiens, MDA-MB-231, 72 h
  IC50: 0.61 ± 0.07 µM
[2]
  IC50: 0.36 ± 0.05 µM
[3]
  IC50: 12.49 ± 0.08 µM
[4]
  IC50: > 50 µM
  Selectivity: 142.3
[5]
  IC50: 3.59 µM

## CC(=O)NNC(=O)[C@]12CC[C@@H](C)[C@H](C)C1C1=CCC3[C@@]4(C)Cc5cc6cc(F)ccc6nc5C(C)(C)C4CC[C@@]3(C)[C@]1(C)CC2 (some centres unmarked) [Compound 4c, N-[5′-fluoro-ursa-12-en-(2,3)-quinoline-28-oyl]-acetohydrazide]
[1]; Homo sapiens, MDA-MB-231, 72 h
  IC50: 1.16 ± 0.06 µM
[2]
  IC50: 0.99 ± 0.05 µM
[3]
  IC50: 19.41 ± 0.12 µM
[4]
  IC50: > 50 µM
  Selectivity: 63.8
[5]
  IC50: 0.072 µM

## Cc1nnc([C@]23CC[C@@H](C)[C@H](C)C2C2=CCC4[C@@]5(C)Cc6cc7ccccc7nc6C(C)(C)C5CC[C@@]4(C)[C@]2(C)CC3)o1 (some centres unmarked) [Compound 5a, N-2-[ursa-12-en-(2,3)-quinoline-28-oyl]-5-methyl-1,3,4-oxadiazole]
[1]; 72 h
  IC50: 5.32 ± 0.13 µM
[1]; Homo sapiens, MDA-MB-231, 72 h
  IC50: < 10 µM
[2]
  IC50: 19.4 ± 0.7 µM
[3]
  IC50: > 50 µM
[4]
  IC50: > 50 µM
  Selectivity: 4.3
[5]
  IC50: > 50 µM

## C[C@@H]1CC[C@]2(C(=O)O)CC[C@]3(C)C(=CCC4[C@@]5(C)Cc6cc7cc(F)ccc7nc6C(C)(C)C5CC[C@]43C)C2[C@H]1C (some centres unmarked) [Compound 3c]
[1]; Homo sapiens, MDA-MB-231, 72 h
  IC50: 0.9 ± 0.1 µM
[2]
  IC50: 1.87 ± 0.03 µM
[3]
  IC50: 13.34 ± 0.13 µM
[4]
  IC50: > 50 µM
  Selectivity: 37.0
[5]
  IC50: 0.37 µM
